In experiment [1] the target is T1, CDK8/cyclin C (Homo sapiens, UniProt P49336).
T1 construct: purchased Invitrogen, USA
Description: Enzyme assay for inhibition of CDK protein in vitro (Z-LYTE). The format is biochemical. As for the experimental part:
(§1) Compounds 1 and 14 diluted in DMSO were mixed with detected CDK protein (Invitrogen, USA) respectively, incubated at room temperature for 30 minutes; and then mixed with Kinase/Z-LYTE™ Peptide Substrate Mixture (Invitrogen, USA) and 4×ATP. The mixed system was transferred to a 384-well white opaque plate to react for 1 hour at room temperature; 5 μL of Development Solution (Invitrogen, USA) was added to react at room temperature for 1 hour, and finally Stop Reagent (Invitrogen, USA) was added to terminate the reaction and MD SpectraMax I3× microplate reader (Molecular Devices, USA) was used to read fluorescence values.

In experiment [2] the target is T2, CDK3/cyclin E1 (Homo sapiens, UniProt Q00526).
T2 construct: purchased Invitrogen, USA
The experiment is described as above. The class given is biochemical. As for the experimental part:
as §1

Experiment [3] deals with T3, CDK11(non-active) (Homo sapiens, UniProt Q9BWU1).
T3 construct: purchased Invitrogen, USA
The description is as above. The class given is biochemical. As for the experimental part: as §1

In experiment [4] the target is T4, CDK1/cyclin B (Homo sapiens, UniProt P06493).
T4 construct: purchased Invitrogen, USA
The description is as above. The format is biochemical. As for the experimental part: as §1

The target of experiment [5] is T5, CDK14/cyclin Y (Homo sapiens, UniProt O94921).
T5 construct: purchased Invitrogen, USA
The description is as above. The format is biochemical. As for the experimental part: as §1

Experiment [6] concerns the target T6, CDK9/cyclin T1 (Homo sapiens, UniProt P50750).
T6 construct: purchased Invitrogen, USA
The description is as above. The format is biochemical. On the procedure:
as §1

Experiment [7] deals with T7, CDK5/p25 (Homo sapiens, UniProt Q00535).
T7 construct: purchased Invitrogen, USA
The description is as above. The class given is biochemical. As for the experimental part: as §1

The target in experiment [8] is T8, CDK2/cyclin A (Homo sapiens, UniProt P24941).
T8 construct: purchased Invitrogen, USA
Described as above. The class given is biochemical. As for the experimental part:
as §1

Experiment [9] addresses T9, CDK16/cyclin Y (Homo sapiens, UniProt Q00536).
T9 construct: purchased Invitrogen, USA
The description is as above. The class given is biochemical. On the procedure:
as §1

Experiment [10] deals with T10, CDK7/cyclin HMNAT1 (Homo sapiens, UniProt P50613).
T10 construct: purchased Invitrogen, USA
Described as above. The format is biochemical. On the procedure: as §1

The subject of experiment [11] is phosphorylation of RNAPII, MCL-1, and c-MYC in HL-60. Description: Effect on signaling pathway downstream of CDK9. The format is cell-based. The settings on record: HL-60, 0.03-3 μM, 2 hours. On the procedure:
(§2) Against four cells, acute myelocytic leukemia cell line (AML) OCI-AML-3, acute promyelocytic leukemia cell line NB-4, acute myelocytic leukemia cell line (AML) HL-60 and acute myelocytic leukemia cell line (AML) MV4-11 (all purchased from ATCC), by measuring the biochemical endpoints and functional endpoints of multiple cells, the effect of compound 1 was evaluated on CDK9 in cells and other protein kinases related to its signaling pathway, such as RNAPII, XIAP, MCL-1, c-MYC, BCL-2 and so on. […] The effect of Compound 1 on the phosphorylation of CDK9, RNAPII, XIAP, MCL-1, c-MYC, BCL-2 in these cell lines was determined (FIG. 1a-d).

Experiment [12] deals with phosphorylation of RNAPII, MCL-1, and c-MYC in NB-4. Description: Effect on signaling pathway downstream of CDK9. The class given is cell-based. The settings on record: NB-4, 0.03-3 μM, 2 hours. As for the experimental part:
as §2

The structures appear in SMILES notation.

T5 sequence (O94921 whole entry): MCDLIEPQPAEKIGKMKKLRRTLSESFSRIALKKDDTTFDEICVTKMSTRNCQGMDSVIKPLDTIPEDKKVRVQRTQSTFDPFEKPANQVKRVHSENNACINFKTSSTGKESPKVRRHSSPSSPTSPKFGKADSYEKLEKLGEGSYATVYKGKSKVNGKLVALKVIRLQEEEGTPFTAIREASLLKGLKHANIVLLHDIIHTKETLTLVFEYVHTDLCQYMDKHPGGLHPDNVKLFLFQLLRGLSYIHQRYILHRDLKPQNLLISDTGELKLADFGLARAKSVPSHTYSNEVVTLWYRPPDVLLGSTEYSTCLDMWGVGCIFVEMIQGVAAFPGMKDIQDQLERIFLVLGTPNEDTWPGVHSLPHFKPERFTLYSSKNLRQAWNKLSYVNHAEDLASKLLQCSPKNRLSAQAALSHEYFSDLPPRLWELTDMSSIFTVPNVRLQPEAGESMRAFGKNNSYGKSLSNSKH
T5 sequence (Q8ND76 whole entry partner): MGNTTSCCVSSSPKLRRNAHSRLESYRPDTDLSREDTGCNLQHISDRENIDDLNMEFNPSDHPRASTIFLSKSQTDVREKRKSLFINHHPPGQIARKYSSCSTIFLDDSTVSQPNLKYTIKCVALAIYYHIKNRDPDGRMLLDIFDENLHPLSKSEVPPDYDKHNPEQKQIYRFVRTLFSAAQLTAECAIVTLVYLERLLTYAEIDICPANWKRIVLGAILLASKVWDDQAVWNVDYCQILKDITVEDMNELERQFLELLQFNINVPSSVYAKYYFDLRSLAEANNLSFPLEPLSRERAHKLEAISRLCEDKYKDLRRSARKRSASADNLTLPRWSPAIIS
T6 sequence (P50750 whole entry): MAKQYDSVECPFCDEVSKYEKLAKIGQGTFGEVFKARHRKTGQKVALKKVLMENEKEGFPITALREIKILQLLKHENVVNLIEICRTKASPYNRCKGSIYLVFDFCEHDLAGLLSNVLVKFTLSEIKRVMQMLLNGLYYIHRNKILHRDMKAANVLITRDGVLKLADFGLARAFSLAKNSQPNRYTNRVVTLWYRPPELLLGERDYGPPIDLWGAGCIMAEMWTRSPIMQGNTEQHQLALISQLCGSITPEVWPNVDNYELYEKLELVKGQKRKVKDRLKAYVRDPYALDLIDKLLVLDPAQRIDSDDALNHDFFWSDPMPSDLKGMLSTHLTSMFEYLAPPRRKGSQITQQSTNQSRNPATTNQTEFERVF
T6 sequence (O60563 whole entry partner): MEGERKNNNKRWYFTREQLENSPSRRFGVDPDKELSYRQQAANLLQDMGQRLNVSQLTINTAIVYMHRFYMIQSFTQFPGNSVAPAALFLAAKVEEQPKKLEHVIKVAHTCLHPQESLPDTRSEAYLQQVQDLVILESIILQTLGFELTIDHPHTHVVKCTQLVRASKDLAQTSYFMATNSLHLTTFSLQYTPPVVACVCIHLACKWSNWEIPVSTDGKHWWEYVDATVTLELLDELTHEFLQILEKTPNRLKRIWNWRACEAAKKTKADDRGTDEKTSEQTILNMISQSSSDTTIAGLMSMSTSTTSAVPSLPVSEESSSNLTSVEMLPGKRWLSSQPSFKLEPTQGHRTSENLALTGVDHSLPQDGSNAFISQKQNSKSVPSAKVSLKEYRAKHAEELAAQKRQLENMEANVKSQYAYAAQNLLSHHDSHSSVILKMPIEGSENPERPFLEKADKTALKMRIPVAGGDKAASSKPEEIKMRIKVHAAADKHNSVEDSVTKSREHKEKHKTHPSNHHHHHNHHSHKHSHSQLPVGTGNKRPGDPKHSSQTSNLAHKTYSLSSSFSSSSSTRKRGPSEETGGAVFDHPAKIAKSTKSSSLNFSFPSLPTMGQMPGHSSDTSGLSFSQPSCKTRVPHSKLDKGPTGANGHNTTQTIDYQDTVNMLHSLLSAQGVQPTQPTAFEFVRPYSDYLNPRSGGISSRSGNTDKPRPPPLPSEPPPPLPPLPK
T3 sequence (Q9BWU1 whole entry): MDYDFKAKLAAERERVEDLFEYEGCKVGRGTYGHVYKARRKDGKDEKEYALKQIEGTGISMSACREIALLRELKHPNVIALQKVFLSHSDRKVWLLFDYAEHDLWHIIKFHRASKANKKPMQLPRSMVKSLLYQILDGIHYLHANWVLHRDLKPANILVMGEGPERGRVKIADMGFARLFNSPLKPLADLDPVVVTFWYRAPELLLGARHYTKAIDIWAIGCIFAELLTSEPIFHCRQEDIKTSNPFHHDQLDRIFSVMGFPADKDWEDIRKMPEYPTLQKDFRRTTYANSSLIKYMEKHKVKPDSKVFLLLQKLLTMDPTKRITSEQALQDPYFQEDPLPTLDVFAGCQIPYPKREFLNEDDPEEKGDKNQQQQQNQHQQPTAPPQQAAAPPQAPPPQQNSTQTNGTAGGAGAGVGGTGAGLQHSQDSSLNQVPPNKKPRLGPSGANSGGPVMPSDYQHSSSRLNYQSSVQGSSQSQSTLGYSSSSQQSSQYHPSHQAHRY
T7 sequence (Q00535 whole entry): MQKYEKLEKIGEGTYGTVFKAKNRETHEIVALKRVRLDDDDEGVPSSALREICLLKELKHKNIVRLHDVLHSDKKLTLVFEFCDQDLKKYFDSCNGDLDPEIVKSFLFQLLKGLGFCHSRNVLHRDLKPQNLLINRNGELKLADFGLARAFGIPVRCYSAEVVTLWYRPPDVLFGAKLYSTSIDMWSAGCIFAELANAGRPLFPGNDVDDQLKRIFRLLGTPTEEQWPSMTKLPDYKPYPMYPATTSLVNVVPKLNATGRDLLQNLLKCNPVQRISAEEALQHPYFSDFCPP
T7 sequence (Q15078 99-307 partner limits assumed): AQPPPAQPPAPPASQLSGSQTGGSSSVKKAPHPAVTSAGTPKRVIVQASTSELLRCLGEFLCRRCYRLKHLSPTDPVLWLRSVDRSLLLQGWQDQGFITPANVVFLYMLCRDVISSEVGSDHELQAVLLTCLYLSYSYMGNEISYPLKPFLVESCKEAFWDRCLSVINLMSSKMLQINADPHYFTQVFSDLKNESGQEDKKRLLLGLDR
T2 sequence (Q00526 whole entry): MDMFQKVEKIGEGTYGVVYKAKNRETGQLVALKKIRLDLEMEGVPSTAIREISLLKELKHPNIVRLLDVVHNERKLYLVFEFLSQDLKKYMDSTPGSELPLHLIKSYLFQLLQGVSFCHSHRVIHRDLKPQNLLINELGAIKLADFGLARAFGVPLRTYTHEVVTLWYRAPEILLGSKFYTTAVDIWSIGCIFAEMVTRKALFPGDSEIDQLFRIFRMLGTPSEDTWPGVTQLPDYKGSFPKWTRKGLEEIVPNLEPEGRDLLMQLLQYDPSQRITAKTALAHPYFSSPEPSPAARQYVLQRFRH
T2 sequence (P24864 whole entry partner): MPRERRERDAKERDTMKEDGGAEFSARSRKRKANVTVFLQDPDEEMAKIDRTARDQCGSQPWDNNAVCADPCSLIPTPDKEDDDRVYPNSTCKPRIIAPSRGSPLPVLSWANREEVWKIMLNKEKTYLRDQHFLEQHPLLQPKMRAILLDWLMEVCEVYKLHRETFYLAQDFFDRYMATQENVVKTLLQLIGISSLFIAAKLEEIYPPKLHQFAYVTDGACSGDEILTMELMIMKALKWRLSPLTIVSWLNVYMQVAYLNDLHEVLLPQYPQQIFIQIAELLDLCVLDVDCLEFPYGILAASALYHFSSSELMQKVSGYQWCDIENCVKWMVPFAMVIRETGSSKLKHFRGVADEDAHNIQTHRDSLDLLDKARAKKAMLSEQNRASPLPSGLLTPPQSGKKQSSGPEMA
T10 sequence (P50613 whole entry): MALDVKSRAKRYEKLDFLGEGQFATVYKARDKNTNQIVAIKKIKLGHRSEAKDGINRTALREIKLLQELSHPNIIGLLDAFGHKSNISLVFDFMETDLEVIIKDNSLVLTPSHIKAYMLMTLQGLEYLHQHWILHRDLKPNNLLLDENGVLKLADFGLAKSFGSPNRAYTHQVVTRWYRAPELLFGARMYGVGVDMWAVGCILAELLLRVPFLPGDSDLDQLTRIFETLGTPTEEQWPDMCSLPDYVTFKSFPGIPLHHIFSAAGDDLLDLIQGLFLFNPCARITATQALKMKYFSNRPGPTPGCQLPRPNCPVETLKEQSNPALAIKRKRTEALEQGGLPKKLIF
T10 sequence (P51946 whole entry partner): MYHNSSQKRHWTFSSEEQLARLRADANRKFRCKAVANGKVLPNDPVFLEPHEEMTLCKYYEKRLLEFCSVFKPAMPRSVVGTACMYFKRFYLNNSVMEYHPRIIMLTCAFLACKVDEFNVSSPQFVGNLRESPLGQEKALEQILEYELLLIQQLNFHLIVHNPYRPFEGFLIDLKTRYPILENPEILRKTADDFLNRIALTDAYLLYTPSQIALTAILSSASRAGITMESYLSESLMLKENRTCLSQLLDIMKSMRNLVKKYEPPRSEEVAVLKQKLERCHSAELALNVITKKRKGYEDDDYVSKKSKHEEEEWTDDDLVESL
T10 sequence (P51948 whole entry partner): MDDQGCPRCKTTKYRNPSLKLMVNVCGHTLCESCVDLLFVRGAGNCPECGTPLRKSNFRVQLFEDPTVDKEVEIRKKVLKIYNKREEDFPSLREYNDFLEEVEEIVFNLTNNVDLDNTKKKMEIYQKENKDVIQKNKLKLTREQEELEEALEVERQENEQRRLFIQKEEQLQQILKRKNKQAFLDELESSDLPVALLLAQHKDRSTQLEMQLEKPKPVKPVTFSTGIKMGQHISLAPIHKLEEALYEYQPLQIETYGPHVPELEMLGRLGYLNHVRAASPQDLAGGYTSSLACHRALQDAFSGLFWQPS

For the compound `COC[C@@H](C)N[C@H]1CC[C@H](Nc2cc(-c3csc(NCC4(C#N)CCOCC4)n3)c(Cl)cn2)CC1` [Compound 1, 4-(((4-(5-chloro-2-(((1R,4r)-4-(((R)-1-methoxypropyl-2-yl)amino)cyclohexyl)amino)pyridin-4-yl)thiazol-2-yl)amino)methyl)tetrahydro-2H-pyran-4-carbonitrile], the IC50 in [1] was more than 10 µM; in experiment [2] it was more than 10 µM; in experiment [3] it was more than 10 µM; in [4], 5.41 µM; in experiment [5], 2.71 µM; in experiment [6] it was 0.000928 µM. Also, the half-inhibitory concentration (IC50) stood at 6.95 µM in experiment [7], 6.85 µM in experiment [8], 0.195 µM in [9] and 3.7 µM in experiment [10]. Besides, the “effect on the phosphorylation of RNAPII, MCL-1, and c-MYC directly downstream of CDK9 protein” value in experiment [11] and in [12] was “significant inhibitory effect” in each case.

The term IC50 denotes the concentration at which inhibition is half-maximal. Low readings indicate inhibition by little substance, high ones a need for much substance.

These data come from patent US10952999B2, “Inhibitor of cyclin-dependent kinase CDK9” (GENFLEET THERAPEUTICS (SHANGHAI) INC., priority 2017, dated 2021).
